In the experiment the target is human plasma kallikrein (Homo sapiens, UniProt P03952). The experiment can be described thus: Kallikrein inhibition FLINT assay with quenched AMC peptide substrate Z-Gly-Pro-Arg-AMC (end point EP or kinetic KIN reads). It is filed as biochemical. The note with it: kinetic reads at 5 min intervals over 30 min; read-out: Kallikrein (KIN) IC50. The gist of the method:
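Enzyme and compound were preincubated 30 min before adding 50 μM AMC substrate in pH 7.5 Tris/NaCl/CaCl2/BSA/CHAPS buffer. AMC release was read at 30 min endpoint or every 5 min.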

For orientation: IC50 means the midpoint of a concentration-inhibition curve.

human plasma kallikrein, sequence (P03952 391-638 limits assumed): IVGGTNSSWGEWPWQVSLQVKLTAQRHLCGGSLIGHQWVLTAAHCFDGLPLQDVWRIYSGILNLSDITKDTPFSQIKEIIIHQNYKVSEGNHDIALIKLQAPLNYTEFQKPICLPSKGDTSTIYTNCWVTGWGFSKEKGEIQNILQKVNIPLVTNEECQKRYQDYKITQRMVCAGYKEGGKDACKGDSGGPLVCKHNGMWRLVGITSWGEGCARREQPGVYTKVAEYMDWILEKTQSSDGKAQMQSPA
human plasma kallikrein, sequence (P03952 20-390 partner limits assumed): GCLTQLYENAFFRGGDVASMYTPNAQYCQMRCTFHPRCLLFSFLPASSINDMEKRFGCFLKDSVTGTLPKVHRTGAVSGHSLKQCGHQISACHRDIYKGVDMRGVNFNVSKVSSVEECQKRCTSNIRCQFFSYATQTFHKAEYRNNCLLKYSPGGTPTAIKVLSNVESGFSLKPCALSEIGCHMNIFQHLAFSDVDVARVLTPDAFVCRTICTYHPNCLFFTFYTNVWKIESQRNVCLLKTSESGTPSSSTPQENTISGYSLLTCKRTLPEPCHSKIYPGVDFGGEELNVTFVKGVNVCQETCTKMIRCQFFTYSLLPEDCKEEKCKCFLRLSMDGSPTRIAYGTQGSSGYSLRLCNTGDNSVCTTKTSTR

On to `Cn1nccc1-c1cnn(C(Cn2cc(F)cn2)c2ccc(-c3c(-n4cnnn4)ccc(Cl)c3F)c[n+]2[O-])c1` (single isomer, unassigned) [Example P501], for which the 50% inhibitory concentration (IC50) is 0.736 µM.
In the case of `Cn1cc2cc(-c3cnn(C(CC4CC4)c4ccc(-c5c(-n6cnnn6)ccc(Cl)c5F)c[n+]4[O-])c3)ccc2n1` (centres unmarked) [Example P326] it was 0.0479 µM; in that of `NC(=O)c1ccc(-c2cnn(C(CCOC(F)F)c3ccc(-c4c(-n5cc(Cl)nn5)ccc(Cl)c4F)c[n+]3[O-])c2)cc1` (single isomer, unassigned) [Example P896], 0.0002 µM; in that of `CC(C)(C)c1cnn(CC(c2ccc(-c3c(-n4cc(C(F)(F)F)nn4)ccc(Cl)c3F)c[n+]2[O-])n2cc(-c3ccc(C(N)=O)c(F)c3)cn2)c1` (centres unmarked) [Example P951], 0.316 µM.
With `[O-][n+]1cc(-c2c(-n3cnnn3)ccc(Cl)c2F)ccc1C(Cn1cccn1)n1cc(-c2ccnc(C(F)F)c2)cn1` (centres unmarked) [Example P318] the figure was 0.0139 µM.
In the case of `NC(=O)c1ccc(-c2cnn(C(Cc3ccn(C(F)F)n3)c3ccc(-c4c(C(F)F)ccc(Cl)c4F)c[n+]3[O-])c2)cc1` (single isomer, unassigned) [Example Q68] it was 0.111 µM; in that of `NC(=O)c1ccc(-c2cnn(C(Cc3ccn(C(F)F)n3)c3ccc(-c4c(-n5cc(C(F)(F)F)nn5)ccc(Cl)c4F)c[n+]3[O-])c2)cc1F` (centres unmarked) [Example P952], 0.0023 µM; in that of `NC(=O)C1CC1CC(c1ccc(-c2c(-n3cnnn3)ccc(Cl)c2F)c[n+]1[O-])n1cc(-c2ccc(N)nc2F)cn1` (racemic) [Example P201], 0.0739 µM.
For `[O-][n+]1cc(-c2cc(Cl)ccc2-n2cnnn2)ccc1C(Cc1ccc(Cl)cc1)n1cc(-c2ccc(OC(F)(F)F)cc2)cn1` (centres unmarked) [Example P150], the IC50 came out at 0.397 µM.
With `[2H]C([2H])([2H])OC([2H])([2H])CC(c1ccc(-c2c(-n3cc(C(F)(F)F)nn3)ccc(Cl)c2F)c[n+]1[O-])n1cc(-c2ncnn2C)cn1` (single isomer, unassigned) [Example P864] the figure was 0.549 µM; with `O=C(O)c1ccc(-c2cnn(C(CC3CC3C(=O)N3CCC(c4ccccc4)C3)c3ccc(-c4cc(Cl)ccc4-n4cnnn4)c[n+]3[O-])c2)cc1` (single isomer, unassigned) [Example P101], 0.625 µM.
With `Cn1nnc(F)c1-c1cnn(C(Cc2ccn(C(F)F)n2)c2ccc(-c3c(-n4cc(Cl)nn4)ccc(Cl)c3F)c[n+]2[O-])c1` (centres unmarked) [Example P797] the figure was 0.0238 µM; with `Cn1cc(CC(c2ccc(-c3c(-n4cnnn4)ccc(Cl)c3F)c[n+]2[O-])n2cc(-c3ccnc(C#N)c3)cn2)cn1` (centres unmarked) [Example P408], 0.0174 µM; with `[2H]C([2H])([2H])OC([2H])([2H])CC(c1ccc(-c2c(-n3cc(C(F)(F)F)nn3)ccc(Cl)c2F)c[n+]1[O-])n1cc(-c2ccc(C(N)=O)c(F)c2)cn1` (single isomer, unassigned) [Example P913], 0.0072 µM.
With `O=C(O)c1ccc(-c2cnn(C(CCc3ccccc3)c3ccc(-c4cc(Cl)ccc4-n4cnnn4)c[n+]3[O-])c2)cc1` (centres unmarked) [Example P65] the figure was 0.721 µM; with `Cn1nncc1-c1cnn([C@H](Cc2ccn(C(F)F)n2)c2ccc(-c3c(-n4cc(C(F)(F)F)nn4)ccc(Cl)c3F)c[n+]2[O-])c1` [Example P792], 0.0762 µM.
With `O=C(O)c1ccc(-c2cnn(C(c3ccc(-c4cc(Cl)ccc4-n4cnnn4)c[n+]3[O-])C(O)c3ccccc3)c2)cc1` (single isomer, unassigned) [Example P119], the IC50 worked out at 0.155 µM.
With `[O-][n+]1cc(-c2c(-n3cnnn3)ccc(Cl)c2F)ccc1[C@@H](CCOC(F)F)n1cc(-c2ccnn2C(F)F)cn1` [Example P564] the figure was 0.0056 µM.
In the case of `O=C(O)c1ccc(-c2cnn(C(CCOC(F)F)c3ccc(-c4c(-n5cc(C(F)(F)F)nn5)ccc(Cl)c4F)c[n+]3[O-])c2)cc1` (centres unmarked) [Example P838] it was 0.0307 µM; in that of `Cn1nncc1-c1cnn([C@H](Cc2ccc(F)cc2)c2ccc(-c3c(-n4cc(OC(F)F)nn4)ccc(Cl)c3F)c[n+]2[O-])c1` [Example P635], 0.0034 µM; in that of `Cn1cc(-c2cnn(C(CC3CC3)c3ccc(-c4c(-n5cnnn5)ccc(Cl)c4F)c[n+]3[O-])c2)ccc1=O` (centres unmarked) [Example P216], 0.296 µM.
For `[O-][n+]1cc(-c2c(-n3cnnn3)ccc(Cl)c2F)ccc1C(CCOC(F)F)n1cc(-c2c(Cl)ncn2C(F)F)cn1` (single isomer, unassigned) [Example P843], the IC50 was approximately 0.071 µM.
With `Cn1nnc(F)c1-c1cnn([C@H](CCOC(F)F)c2ccc(-c3c(-n4cc(C(F)(F)F)nn4)ccc(Cl)c3F)c[n+]2[O-])c1` [Example P754] the figure was 0.0743 µM.
With `COc1cc(C(Cc2ccccc2)n2cc(-c3ccc(C(=O)O)cc3)cn2)[n+]([O-])cc1-c1c(OCC(F)(F)F)ccc(Cl)c1F` (centres unmarked) [Example Q6] the figure was 0.0104 µM.
With `Cc1cc(-c2cnn(C(Cn3cc(F)cn3)c3ccc(-c4c(-n5cnnn5)ccc(Cl)c4F)c[n+]3[O-])c2)ccn1` (centres unmarked) [Example P474] the figure was 0.0132 µM; with `Nc1ccc(-c2cnn(C(Cn3cc(F)cn3)c3ccc(-c4c(C(F)F)ccc(Cl)c4F)c[n+]3[O-])c2)c(F)n1` (single isomer, unassigned) [Example Q25], 0.0178 µM.
With `COC(=O)Nc1ccc(-c2cnn(C(Cc3ccc(Cl)cc3)c3ccc(-c4c(-n5cnnn5)ccc(Cl)c4F)c[n+]3[O-])c2)cc1` (centres unmarked) [Example P94], the IC50 amounted to 0.0183 µM.
In the case of `Cn1cncc1-c1cnn(C(CC2CC2)c2ccc(-c3c(-n4cnnn4)ccc(Cl)c3F)c[n+]2[O-])c1` (centres unmarked) [Example P495] it was 0.211 µM.
Turning to `COc1cc(C(CC2CC2)n2cc(-c3cnn(C)c(=O)c3)cn2)[n+]([O-])cc1-c1c(C#N)ccc(Cl)c1F` (single isomer, unassigned) [Example Q10], the IC50 was 0.375 µM.
In the case of `[O-][n+]1cc(-c2c(-n3cnnn3)ccc(Cl)c2F)ccc1[C@@H](CCOC(F)F)n1cc(-c2scnc2C(F)(F)F)cn1` [Example P580] it was 0.0135 µM.
In the case of `NC(=O)c1ccc(-c2cnn(C(CCOC(F)F)c3ccc(-c4c(-n5cc(C(F)(F)F)nn5)ccc(Cl)c4F)c[n+]3[O-])c2)cc1F` (centres unmarked) [Example P844] it was 0.0313 µM; in that of `NC(=O)c1ccc(-c2cnn(C(Cc3nccs3)c3ccc(-c4c(-n5cc(C(F)(F)F)nn5)ccc(Cl)c4F)c[n+]3[O-])c2)cc1F` (single isomer, unassigned) [Example P942], 0.249 µM; in that of `CCC(c1ccc(-c2c(-n3cnnn3)ccc(Cl)c2F)c[n+]1[O-])n1cc(-c2ccc(NC(=O)OC)cc2)cn1` (centres unmarked) [Example P153], 0.108 µM.
With `CN(CC(c1ccc(-c2c(-n3cnnn3)ccc(Cl)c2F)c[n+]1[O-])n1cc(-c2ccncc2)cn1)C(=O)CC(=O)N1CCCCC1` (centres unmarked) [Example P322] the figure was 0.0834 µM.
For `O=c1ccccn1CC(c1ccc(-c2c(-n3cnnn3)ccc(Cl)c2F)c[n+]1[O-])n1cc(-c2cc[n+]([O-])c(C(F)F)c2)cn1` (single isomer, unassigned) [Example P373], the half-maximal inhibitory concentration (IC50) was determined as 0.161 µM.
In the case of `COc1cnc(F)c(-c2cnn(C(CC3CC3)c3ccc(-c4c(-n5cnnn5)ccc(Cl)c4F)c[n+]3[O-])c2)c1` (centres unmarked) [Example P75] it was 0.249 µM; in that of `Nc1ccc(-c2cnn(C(Cn3cccn3)c3ccc(-c4c(-n5cnnn5)ccc(Cl)c4F)c[n+]3[O-])c2)c(F)n1` (single isomer, unassigned) [Example P314], 0.0014 µM.
With `CN(CC(c1ccc(-c2c(-n3cnnn3)ccc(Cl)c2F)c[n+]1[O-])n1cc(-c2cc[n+]([O-])cc2)cn1)C(=O)c1ccccc1` (centres unmarked) [Example P344] the figure was 0.175 µM.
With `[O-][n+]1cc(-c2c(-n3cnnn3)ccc(Cl)c2F)ccc1C(Cn1cc(C(F)(F)F)cn1)n1cc(-c2ccnc(F)c2)cn1` (centres unmarked) [Example P331] the figure was 0.0285 µM; with `Cn1ccc(CC(c2ccc(-c3c(-n4cnnn4)ccc(Cl)c3F)c[n+]2[O-])n2cc(-c3ccnc(C#N)c3)cn2)n1` (centres unmarked) [Example P359], 0.0102 µM; with `O=C(O)c1ccc(-c2cnn(C(Cc3ccn(C(F)F)n3)c3ccc(-c4c(C(F)F)ccc(Cl)c4F)c[n+]3[O-])c2)cc1` (single isomer, unassigned) [Example Q70], more than 0.274 µM.
For `Cn1cc(CC(c2ccc(-c3c(C(F)F)ccc(Cl)c3F)c[n+]2[O-])n2cc(-c3cnnn3C)cn2)cn1` (single isomer, unassigned) [Example Q42], the IC50 came to 0.0443 µM.
With `O=C(O)c1ccc(-c2cnn(C(Cc3ccn(C(F)F)n3)c3ccc(-c4c(-n5cc(Cl)nn5)ccc(Cl)c4F)c[n+]3[O-])c2)cc1` (single isomer, unassigned) [Example P898] the figure was 0.0025 µM; with `[O-][n+]1cc(-c2c(-n3cnnn3)ccc(Cl)c2F)ccc1C(CC1CC1)n1cc(-c2cnsc2)cn1` (centres unmarked) [Example P456], 0.63 µM.
In the case of `O=C(O)c1ccc(-c2cnn(C(CC3CC3C(=O)N3CCC(c4ccccc4)C3)c3ccc(-c4c(-n5cnnn5)ccc(Cl)c4F)c[n+]3[O-])c2)cc1` (centres unmarked) [Example P175] it was 0.365 µM; in that of `O=C1CCCN1CC(c1ccc(-c2c(-n3cnnn3)ccc(Cl)c2F)c[n+]1[O-])n1cc(-c2ccnc(C(F)(F)F)c2)cn1` (single isomer, unassigned) [Example P364], 0.0135 µM; in that of `COC(=O)Nc1ccc(-c2cnn(C(CC3CC3C(=O)N3CCCCC3)c3ccc(-c4c(-n5cnnn5)ccc(Cl)c4F)c[n+]3[O-])c2)cc1` (centres unmarked) [Example P231], 0.366 µM.
With `CN(CC(c1ccc(-c2c(-n3cnnn3)ccc(Cl)c2F)c[n+]1[O-])n1cc(-c2ccnc(C(F)(F)F)c2)cn1)C(=O)c1ccccc1` (single isomer, unassigned) [Example P409] the figure was 0.0323 µM; with `Cn1cc(-c2cnn([C@H](CCOC(F)F)c3ccc(-c4c(-n5cc(C(F)(F)F)nn5)ccc(Cl)c4F)c[n+]3[O-])c2)nn1` [Example P760], 0.454 µM; with `COc1cc(C(CC2CC2)n2cc(-c3sc(C(N)=O)cc3C)cn2)[n+]([O-])cc1-c1cc(Cl)ccc1-n1cc(C(F)(F)F)nn1` (single isomer, unassigned) [Example P958], 0.0131 µM.

Source of the values: patent US11814364B2, “Pyridine N-oxide derivatives useful as factor XIa inhibitors” (Janssen Pharmaceutica NV, priority 2021, dated 2023).
